Experimental data from patent US20230293560A1, “METHOD FOR MODULATING THE BLADDER MICROBIOME TO IMPROVE BLADDER HEALTH” (Kimberly-Clark Worldwide, Inc., priority 2020, published 2023).

What was measured:
[1] = system: E. faecalis; assay: Plate assay screening of prebiotics; assay type: cell-based, Enterococcus faecalis; set-up: key: ++: if growth and fermentation was equal to or greater than the positive control; +: if growth and fermentation was less than the positive control; +: if weak or no growth or fermentation; +^2: Bacteria demonstrated growth but no fermentation on the prebiotic; details: E. faecalis KC16-7171-3, Bladder; MRS-based agar with glucose substituted by prebiotic
Procedure: (§1) Most of the prebiotic compounds were initially tested in a high throughput assay screening process, described further in the Test Methods section herein, but three prebiotics (as noted in Table 3) were tested using a plate assay screening process as described in the Test Methods section herein. The prebiotics were tested against the commensal bacterial species of Lactobacillus crispatus, Lactobacillus gasseri, and Lactobacillus jensenii and against the pathogenic bacterial species of Streptococcus anginosus and Enterococcus faecalis as shown in Table 2. The bacterial species were taken from different sources, listed as culture collection, bladder, and vagina. […]
(§2) • 1. […] Bacteria were enumerated on each agar and color changes were recorded. […] Small colonies are counted as S. anginosus and large colonies are counted as L. crispatus. • 10. […]

[2] = system: L. crispatus; assay: Plate assay screening of prebiotics; assay type: cell-based, Lactobacillus crispatus; set-up: key: ++: if growth and fermentation was equal to or greater than the positive control; +: if growth and fermentation was less than the positive control; +: if weak or no growth or fermentation; +^2: Bacteria demonstrated growth but no fermentation on the prebiotic; details: MRS-based agar with glucose substituted by prebiotic
Procedure: as §1, §2

[3] = system: S. anginosus; assay: Plate assay screening of prebiotics; assay type: cell-based, Streptococcus anginosus; set-up: key: ++: if growth and fermentation was equal to or greater than the positive control; +: if growth and fermentation was less than the positive control; +: if weak or no growth or fermentation; +^2: Bacteria demonstrated growth but no fermentation on the prebiotic; details: S. anginosus KC18-1131-3B, Bladder; MRS-based agar with glucose substituted by prebiotic
Procedure: as §1, §2

[4] = system: L. jensenii; assay: Plate assay screening of prebiotics; assay type: cell-based, Lactobacillus jensenii; set-up: key: ++: if growth and fermentation was equal to or greater than the positive control; +: if growth and fermentation was less than the positive control; +: if weak or no growth or fermentation; +^2: Bacteria demonstrated growth but no fermentation on the prebiotic; details: L. jensenii KC17-4297-18, Bladder; MRS-based agar with glucose substituted by prebiotic
Procedure: as §1, §2

[5] = system: E. coli; assay: Additional prebiotic screening against E. coli (plate assay); assay type: cell-based, Escherichia coli
Description: Additional screening of three prebiotic compounds of alpha-methyl-D-glucoside, isomaltulose, and alpha cyclodextrin was completed against pathogenic bacteria species Escherichia coli from both bladder and vaginal sources, as shown in Table 4. The growth of the bacterial species for this additional screening process against E. coli was not compared to growth of a control as in the screening process documented in Table 3, but was documented based on growth or no growth for the number of samples tested.
• 1. An in house bacterial agar was created based on MRS agar (Kaplan and Hutkins, 2000) where the glucose is substituted for the prebiotic to be tested (either dextran MW ˜6,000, alpha-cyclodextrin, glucomannan, or pectin), bromocresol purple was included as a pH indicator. • 2. Bacteria were enumerated on each agar and color changes were recorded. Method for Competition Assay (Modified from “In Vitro Evaluation of Nutrients that Selectively Confer a Competitive Advantage to Lactobacilli” Vongsa et al, Beneficial Microbes 2016) • 1. Create 2% w/v stock of prebiotic or positive control (glucose/dextrose) as described above. • 2. From a freezer stock subculture the bacteria twice into De Man, Rogosa and Sharpe (MRS) broth (BD Difco, Becton Dickinson, Franklin Lakes, NJ), 37° C., stationary, anaerobic, overnight. • 3. From the last subculture, plate onto an MRS agar plate for L. crispatus KC18-1173-1 or blood agar for S. anginosus KC18-1131-3B, grow 37° C., stationary, anaerobic, overnight. • 4. Create a bacterial suspension by using a sterile tipped swab to transfer colonies of bacteria into a PBS suspension blank to a 2 MacFarland for both species. • 5. Enumerate the starting culture. • 6. Add 9.8 mL of prebiotic media into a 15 mL conical tube. • 7. Add 100 μL of the diluted bacteria to the media, incubate at 37° C., anaerobic, 48 hours. • 8. Harvest 100 μL from the tube containing the prebiotic and plate onto MRS agar and tryptic soy agar (TSA). • 9. […] Small colonies are counted as S. anginosus and large colonies are counted as L. crispatus. • 10. […]

[6] = system: commensal and pathogenic bacterial species; assay: Prebiotic screening, summary in words across species; assay type: cell-based; details: commensal (L. crispatus, L. gasseri, L. jensenii) and pathogenic (S. anginosus, E. faecalis) species
How it was run: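 Prebiotics at 2% w/v stock in API 50 CHL medium with bromocresol purple, inoculated with bacteria and read every 20 min for 24-48 h at OD430/590 (fermentation) and OD660 (growth), scored against a glucose control. Some tested on MRS-based agar with the prebiotic in place of glucose; competition assay with L. crispatus and S. anginosus incubated 48 h anaerobically at 37 °C, then enumerated on MRS and TSA.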

[7] = E. coli KC17-3970-4, Vagina, of 1 tested

OC[C@H]1O[C@@H]2O[C@H]3[C@H](O)[C@@H](O)[C@@H](O[C@H]4[C@H](O)[C@@H](O)[C@@H](O[C@H]5[C@H](O)[C@@H](O)[C@@H](O[C@H]6[C@H](O)[C@@H](O)[C@@H](O[C@H]7[C@H](O)[C@@H](O)[C@@H](O[C@H]1[C@H](O)[C@H]2O)O[C@@H]7CO)O[C@@H]6CO)O[C@@H]5CO)O[C@@H]4CO)O[C@@H]3CO [Alpha Cyclodextrin, Alpha-Cyclodextrin]
growth and fermentation vs positive control, Ef-2 (plate assay) [1]: + | growth and fermentation vs positive control, Lc-2 (plate assay) ([2]; L. crispatus KC16-7134-3C, Bladder): + | growth and fermentation vs positive control, Lc-3 (plate assay) ([2]; L. crispatus KC18-1173-1, Bladder): +^2 | growth and fermentation vs positive control, Sa-2 (plate assay) [3]: + | growth and fermentation vs positive control, Lj-1 (plate assay) [4]: + | # fermented, Ec-3 (plate assay) [5, 7]: 0 | # grew, Ec-3 (plate assay) [5, 7]: 1 | growth of E. coli Ec-3, in words ([5]; the one E. coli species tested (Ec-3), vaginal source): did grow | overall outcome of the screening of Table 3, in words [6]: growing at least some of the commensal bacterial species and either having less growth than the positive control or almost no growth of the pathogenic bacterial species
